In ChEMBL document CHEMBL1140952 (J Med Chem, 2009) one finds IC50 data, which are given here for three compounds.

The structures appear in SMILES notation. Bounds are passed on as bounds.

A short description of assay [1]: Antiproliferative activity against Met-dependent human GTL16 cells after 72 hrs by MTS assay. Type of assay: functional, cell-based. The following applies: GTL 16, 72 h. For orientation: Tetrazolium assays rely on reduction of a dye to a coloured formazan, in cell work by metabolically active cells.
Assay [2] has as its target Hepatocyte growth factor receptor (Homo sapiens, UniProt P08581). Briefly: Inhibition of MET.
A further assay concerns the target Cytochrome P450 3A4 (Homo sapiens, UniProt P08684). As to the kind of experiment: Inhibition of CYP3A4. Type of assay: ADME.

Sequence of Hepatocyte growth factor receptor (P08581 whole entry): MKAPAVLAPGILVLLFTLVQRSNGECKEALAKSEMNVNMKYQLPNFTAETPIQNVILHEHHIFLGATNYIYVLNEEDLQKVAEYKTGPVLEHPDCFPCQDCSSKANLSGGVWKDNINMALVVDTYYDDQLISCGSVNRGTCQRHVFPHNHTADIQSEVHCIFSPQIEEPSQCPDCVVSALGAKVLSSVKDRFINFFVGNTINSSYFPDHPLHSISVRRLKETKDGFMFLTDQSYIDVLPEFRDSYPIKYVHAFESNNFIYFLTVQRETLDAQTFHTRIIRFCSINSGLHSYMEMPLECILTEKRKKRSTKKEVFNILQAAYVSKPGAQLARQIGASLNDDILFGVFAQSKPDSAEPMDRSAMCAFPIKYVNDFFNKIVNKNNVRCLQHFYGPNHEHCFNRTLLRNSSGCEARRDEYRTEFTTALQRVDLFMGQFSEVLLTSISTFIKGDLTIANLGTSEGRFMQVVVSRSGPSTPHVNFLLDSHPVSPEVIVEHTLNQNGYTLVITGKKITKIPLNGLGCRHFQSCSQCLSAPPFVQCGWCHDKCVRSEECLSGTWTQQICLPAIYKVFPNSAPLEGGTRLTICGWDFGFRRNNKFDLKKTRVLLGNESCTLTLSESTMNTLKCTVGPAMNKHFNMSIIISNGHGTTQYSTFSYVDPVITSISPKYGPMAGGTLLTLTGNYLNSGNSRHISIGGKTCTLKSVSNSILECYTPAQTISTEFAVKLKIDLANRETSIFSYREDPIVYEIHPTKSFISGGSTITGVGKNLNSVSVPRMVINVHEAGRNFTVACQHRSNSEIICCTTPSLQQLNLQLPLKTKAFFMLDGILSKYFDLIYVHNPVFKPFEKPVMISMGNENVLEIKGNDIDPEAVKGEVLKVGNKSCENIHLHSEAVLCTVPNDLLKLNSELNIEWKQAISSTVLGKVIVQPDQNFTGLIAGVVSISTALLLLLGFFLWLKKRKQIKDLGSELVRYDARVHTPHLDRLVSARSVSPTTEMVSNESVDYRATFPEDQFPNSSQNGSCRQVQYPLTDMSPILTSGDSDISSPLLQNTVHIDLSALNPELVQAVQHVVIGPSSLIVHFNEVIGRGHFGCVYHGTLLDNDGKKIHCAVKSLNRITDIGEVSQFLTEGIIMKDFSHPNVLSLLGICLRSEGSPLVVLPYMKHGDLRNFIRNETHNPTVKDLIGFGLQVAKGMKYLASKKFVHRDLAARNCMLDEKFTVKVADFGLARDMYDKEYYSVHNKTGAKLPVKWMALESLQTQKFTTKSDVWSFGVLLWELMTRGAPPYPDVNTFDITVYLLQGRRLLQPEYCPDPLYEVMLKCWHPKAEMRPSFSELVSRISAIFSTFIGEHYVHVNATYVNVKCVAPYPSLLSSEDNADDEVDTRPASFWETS
Sequence of Cytochrome P450 3A4 (P08684 whole entry): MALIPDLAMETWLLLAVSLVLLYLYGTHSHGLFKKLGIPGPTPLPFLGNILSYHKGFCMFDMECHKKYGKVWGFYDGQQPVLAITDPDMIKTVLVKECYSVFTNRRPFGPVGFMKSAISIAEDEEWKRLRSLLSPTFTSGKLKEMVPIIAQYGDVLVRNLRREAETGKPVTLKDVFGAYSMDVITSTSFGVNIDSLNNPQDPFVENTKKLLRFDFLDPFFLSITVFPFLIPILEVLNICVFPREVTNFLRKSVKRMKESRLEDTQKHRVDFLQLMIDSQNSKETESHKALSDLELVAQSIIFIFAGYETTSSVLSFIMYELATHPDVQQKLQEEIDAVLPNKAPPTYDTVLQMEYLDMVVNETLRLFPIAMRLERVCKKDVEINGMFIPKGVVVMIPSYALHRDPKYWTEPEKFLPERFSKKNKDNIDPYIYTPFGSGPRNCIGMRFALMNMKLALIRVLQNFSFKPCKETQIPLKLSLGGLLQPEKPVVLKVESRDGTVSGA

With `Nc1nccc(Oc2ccc(NC(=O)c3cccn(-c4ccc(F)cc4)c3=O)cc2F)c1C#CCO`, the half-inhibitory concentration (IC50) (commonly the concentration that gives 50% inhibition) came to 23 nM in assay [1] and 2.7 nM in assay [2].

As to `C#Cc1c(Oc2ccc(NC(=O)c3cccn(-c4ccc(F)cc4)c3=O)cc2F)ccnc1N`, the IC50 against Cytochrome P450 3A4 was under 1000 nM; in assay [1], 31 nM; in assay [2], 1 nM.

For the compound `CC(C)c1c(Oc2ccc(NC(=O)c3cccn(-c4ccc(F)cc4)c3=O)cc2F)ccnc1N`, the IC50 in assay [1] is 120 nM; in assay [2] it was 3.4 nM.
